Consider 1 compound from patent US10011596B2, “2-amino-3-fluoro-3-(fluoromethyl)-6-methyl-6-phenyl-3,4,5,6-tetrahydropyridines as BACE1 inhibitors” (H. Lundbeck A/S, priority 2015, dated 2018).

Each structure is given as a SMILES string. Read-outs that look alike come from different tables or passages of the source.

Data set [1] has as its target T1, human BACE1 (Homo sapiens, UniProt P56817). Nature of the data set: BACE1 efficacy assay (FRET-based, commercial BACE1 kit). The settings on record: test compound at 10 μM. The data set is classed as biochemical. More on the design: purchased Life Technologies P2985. As for the experimental part: The efficacy assay was performed as a FRET-based assay using a commercially available BACE1 kit (Life Technologies, P2985). 2 μl test compound at 10 μM (final concentration) and 15 μl BACE1 enzyme from the kit (final concentration 3 nM) were preincubated for 15 minutes at room temperature before addition of 15 μl of substrate from the kit (250 nM final concentration) and incubated for additional 90 minutes at room temperature. The assay plate was subsequently read in a Pherastar (Ex540/Em590).

Data set [2] in a line: Bioanalysis of brain and plasma samples (exposure, UPLC-MS/MS). The data set is classed as in vivo, rat. The following applies: male, Sprague Dawley, po, 3 hours post dose; for Kp at 3 h: brain/plasma, rat, read-out: Brain/Plasma ratio. As for the experimental part: Young adult Male Sprague Dawley rats of approximately 250 g weight were purchased from Charles River and received 0-30 mg/kg of vehicle (10% HP betaCD+1M MeSO4, pH 2.5) or test compounds (dissolved in vehicle) only by oral gavage (p.o). The compounds are dosed at a volume of 5 ml/kg. Cohorts of 5-10 animals were established for each treatment condition.
At T=180 minutes after initial dosing the animals were stunned and decapitated with a guillotine. Trunk-blood was sampled in EDTA coated tubes after decapitation of the animal. The blood was centrifuged at 2200 G at 4° C. for 15 minutes and the plasma was collected and frozen at −80° C. The blood was aliquoted for Aβ ELISA and pharmacokinetic analysis. Immediately following sacrifice, the brain was extracted and split into 2 halves. The right hemibrains were snap frozen on dry ice and stored at −80° C. The left half was dissected; with the front forebrain taken for Aβ ELISA and the remainder used for DMPK analysis. These samples were also snap frozen on dry ice and stored at −80° C. until use for analysis.
TC (test compound) was determined in plasma and brain homogenate using UltraPerformance LC® (U PLC®) chromatography followed by tandem-MS (MS/MS) detection.
Brain homogenate was prepared by homogenizing the brain 1:4 (v/v) with water:2-propanol:DMSO (50:30:20 v/v/v) followed by centrifugation and collection of the supernatant. Calibration standards and QC samples were prepared using a Hamilton robot. 150 μL of ISTD in acetonitrile (1 ng/mL ISTD) was added to 25 μL of calibration standards, QC samples and test samples (plasma and brain homogenate) using a Biomek robot. After centrifugation (6200 g, 4° C., 20 min) 100 μL supernatant from each sample was transferred to a new plate and mixed with 100 μL water with 0.1% formic acid using a Biomek robot (method file InVivo transfer). After a quick centrifugation (6200 g, 4° C., 5 min) the samples were placed in the auto-sampler.
MS/MS detection was done with an Applied Biosystems Sciex API 4000 instrument in positive-ion electrospray ionisation mode. TC and ISDD were detected at a parent>daughter mass to charge ratio (m/z). Nitrogen was used for the nebulizer and collision gases. The peak area correlated linearly with the plasma and brain concentration of the analytes in the range of 1.00-1000 ng/mL plasma and 5.00-5000 ng/g brain (corrected for dilution). If the plasma/brain sample drug concentration was above 1000 ng/mL or 5000 ng/g, the sample was diluted appropriately in blank plasma/blank brain homogenate before analysis.
Compound 1 was administered at doses of 10 mg/kg p.o. and 30 mg/kg p.o. and brain and plasma samples were collected at 3 hours post dose and the following exposures were measured as described above.

Data set [3] addresses T1, human BACE1. The data set can be described thus: BACE1 binding assay (SPA-based, radioligand displacement). More on the design: biotin (biotinylated form); made in house; host or cells: Freestyle HEK293 cells. The following applies: pH 4.5, 10 nM radioligand, 6 nM human BACE1, read-out: BACE1 binding affinity. On the procedure:
The binding assay was performed as SPA-based assay using a biotinylated form of human BACE1 recombinantly expressed and subsequently purified from Freestyle HEK293 cells. The binding assay was run in a 50 mM sodium acetate buffer, pH 4.5 containing 50 mM NaCl and 0.03% Tween-20 in white clear bottom 384 plates (Corning #3653). 10 nM (final concentration) radioligand ([^3H]-N-((1S,2R)-1-benzyl-3-cyclopropylamino-2-hydroxy-propyl)-5-(methanesulfonyl-methyl-amino)-N-((R)-1-phenyl-ethyl)-isophthalamide) (TRQ11569 purchased from GE Healthcare) was mixed with test compound at a given concentration, 6 nM (final concentration) human BACE1 and 25 μg Streptavidin coated PVT core SPA beads (RPNQ0007, GE Healthcare Life Sciences) in a total volume of 40 μl. Several concentrations of each test compound were tested in the assay for IC50 determination. The plates were incubated for one hour at room temperature and counted in a WaIlac Trilux counter. […] For each test compound, a IC50 value (the concentration mediating 50% inhibition of the specific binding of the radioligand) was determined from concentration-response curve and used to calculate the Ki from the equation Ki=IC50/(1+L/Kd), where L and Kd are the final concentration of the radioligand used in the assay and the dissociation constant of the radioligand, respectively. The Kd of the radioligand was determined from saturation binding experiments.

The next data set concerns P-gp (MDR1). Nature of the data set: MDCK-MDR1 assay (permeability, efflux ratio). The data set is classed as in vitro ADME. The settings on record: dog. On the procedure:
The permeability of the test compounds was assessed in MDCK-MDR1 cells that were cultured to confluency (4-6 days) in a 96 transwell plate. Test compounds were diluted with the transport buffer (HBSS+1% BSA) to a concentration of 0.5 μM and applied to the apical or basolateral side of the cell monolayer. Permeation of the test compounds from A to B direction or B to A direction was determined in triplicate over a 60-minute incubation time at 37° C. and 5% CO2 with a relative humidity of 95%. Test compounds were quantified by LC-MS/MS analysis based on the peaks area ratios of analyte/IS in both the receiver and donor wells of the transwell plate.
The apparent permeability coefficient Papp (cm/s) was calculated using the equation: Papp=(dCr/dt)×Vr/(A×C0)
Where dCr/dt is the cumulative concentration of compound in the receiver chamber as a function of time (μM/s); Vr is the solution volume in the receiver chamber (0.05 mL on the apical side; 0.25 mL on the basolateral side); A is the surface area for the transport, i.e. 0.0804 cm^2 for the area of the monolayer; C0 is the initial concentration in the donor chamber (μM).

T1 sequence (P56817 46-501): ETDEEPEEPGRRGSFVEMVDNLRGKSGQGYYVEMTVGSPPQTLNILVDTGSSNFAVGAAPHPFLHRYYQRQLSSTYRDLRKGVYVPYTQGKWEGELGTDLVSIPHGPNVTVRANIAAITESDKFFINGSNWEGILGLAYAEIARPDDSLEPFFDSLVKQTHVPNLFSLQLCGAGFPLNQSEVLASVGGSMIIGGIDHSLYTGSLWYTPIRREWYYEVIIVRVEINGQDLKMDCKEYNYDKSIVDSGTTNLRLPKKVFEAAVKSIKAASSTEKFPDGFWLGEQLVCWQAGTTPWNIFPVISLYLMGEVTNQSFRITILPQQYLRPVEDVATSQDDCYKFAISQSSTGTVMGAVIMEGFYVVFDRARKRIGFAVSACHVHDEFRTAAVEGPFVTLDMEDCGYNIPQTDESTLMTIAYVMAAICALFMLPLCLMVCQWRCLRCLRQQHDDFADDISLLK

`C[C@@]1(c2cc(NC(=O)c3cnc(C(F)F)cn3)ccc2F)CC[C@@](F)(CF)C(N)=N1` [Compound 11]: on human BACE1 [1], the inhibition (commonly the relative decrease from the control value, in per cent) at 10 µM was 103%. Moreover, the values for the Kp at 3 h in data set [2] (10 mg/kg p.o.) and in data set [2] (30 mg/kg p.o.) were 2.1 and 2.3, respectively. Besides, the concentration at 3 h in data set [2] (rat brain, 10 mg/kg p.o., read-out: Exp (ng/g), brain) is 416 ng/g; in data set [2] (rat brain, 30 mg/kg p.o., read-out: Exp (ng/g), brain), 1350 ng/g; in data set [2] (rat plasma, 10 mg/kg p.o., read-out: Exp (ng/g), plasma) it was 195 ng/g; in data set [2] (rat plasma, 30 mg/kg p.o., read-out: Exp (ng/g), plasma), 590 ng/g. The Ki on human BACE1 [3] worked out at 55 nM. Also, the efflux ratio (as a rule, the permeability from basolateral to apical divided by that in the opposite direction, in the common usage) at 60 min, 0.5 µM in the data set on P-gp (MDR1) worked out at 1.89.
